Measurements as given in patent US20110105457A1, “HETEROCYCLIC COMPOUND HAVING INHIBITORY ACTIVITY ON PI3K” (SHIONOGI & CO., LTD., priority 2008, published 2011).

biological target: PI-3 kinase γ (Homo sapiens, UniProt P48736); test: PI3Kγ inhibitory activity, PI3-kinase HTRF assay (Millipore); type: biochemical; settings: 0.5 h; compound 50 μM; read-out: Inhibition ratio % (50 μM)
Experimental: (Method) The PI3Kγ inhibitory activity of a compound was evaluated using PI3-kinase HTRF™ assay (Millipore) according to the following procedure.
To each well of a testing plate was added 5 μL of a compound solution comprising 10% DMSO (200 μM as the concentration of the compound), 5 μL of 40 μM phosphatidylinositol (4,5)-bisphosphate/20 mM MgCl2/10 mM DTT, and 5 μL of 80 μg/mL PI-3 kinase γ/10 mM MgCl2/5 mM DTT, and then stood for 10 minutes.
Then, 5 μL of 40 μM ATP/10 mM MgCl2/5 mM DTT was added thereto. After reacting for 30 minutes at room temperature, 5 μL of a solution comprising EDTA and biotinylated phosphatidylinositol (3,4,5)-triphosphate was added to quench the reaction.
5 μL of a detection reagent comprising a europium-labeled anti-GST antibody, the GST-tagged PH domain, and allophycocyanin-labeled streptavidin was added thereto. After 18 hours, HTRF (excitation wavelength: 330 nm, measuring wavelengths: 620 nm and 665 nm) was measured.
A value of dividing an amount of fluorescence obtained at the measuring wavelength 665 nm by an amount of fluorescence obtained at 620 nm was defined as an HTRF ratio. The HTRF ratio in the absence of a compound was defined as 100% activity, and the HTRF ratio in the absence of PI-3 kinase γ was defined as 0% activity to calculate an inhibition ratio.

Chain of PI-3 kinase γ (P48736 whole entry): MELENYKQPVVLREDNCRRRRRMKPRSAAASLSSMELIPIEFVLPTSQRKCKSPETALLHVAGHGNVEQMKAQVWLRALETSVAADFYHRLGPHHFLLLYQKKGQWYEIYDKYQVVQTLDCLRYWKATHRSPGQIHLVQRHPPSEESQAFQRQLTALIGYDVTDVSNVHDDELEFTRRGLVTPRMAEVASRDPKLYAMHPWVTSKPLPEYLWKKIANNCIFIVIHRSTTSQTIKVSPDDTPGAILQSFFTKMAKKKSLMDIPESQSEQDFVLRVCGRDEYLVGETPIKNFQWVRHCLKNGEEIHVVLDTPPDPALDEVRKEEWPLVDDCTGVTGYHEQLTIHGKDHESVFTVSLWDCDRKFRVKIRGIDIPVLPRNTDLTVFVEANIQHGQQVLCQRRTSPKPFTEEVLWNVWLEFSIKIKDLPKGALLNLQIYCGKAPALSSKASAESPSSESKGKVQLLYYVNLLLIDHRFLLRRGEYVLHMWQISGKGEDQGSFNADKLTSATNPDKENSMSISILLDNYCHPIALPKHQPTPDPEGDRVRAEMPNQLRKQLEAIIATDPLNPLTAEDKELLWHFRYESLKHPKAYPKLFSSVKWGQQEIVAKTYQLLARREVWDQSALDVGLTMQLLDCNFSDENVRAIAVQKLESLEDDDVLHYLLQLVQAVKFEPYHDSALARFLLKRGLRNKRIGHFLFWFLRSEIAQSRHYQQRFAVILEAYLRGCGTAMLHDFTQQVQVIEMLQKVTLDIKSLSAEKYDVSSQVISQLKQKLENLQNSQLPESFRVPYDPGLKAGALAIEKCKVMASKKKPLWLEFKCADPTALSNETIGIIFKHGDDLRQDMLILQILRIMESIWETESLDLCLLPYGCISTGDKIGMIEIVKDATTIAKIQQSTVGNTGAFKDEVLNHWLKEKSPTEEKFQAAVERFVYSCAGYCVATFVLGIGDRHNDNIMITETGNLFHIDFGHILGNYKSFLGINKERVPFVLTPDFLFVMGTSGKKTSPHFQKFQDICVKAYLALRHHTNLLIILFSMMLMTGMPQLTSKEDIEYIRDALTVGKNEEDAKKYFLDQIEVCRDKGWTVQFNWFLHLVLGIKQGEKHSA

inhibition at 50 µM [%] | SMILES
59 | COc1cccc(-c2ccc3nc(Nc4ccccn4)cn3n2)c1 [Compound I-220]
87 | CNC(=O)Nc1cn2nc(Nc3cccc(CO)c3)ccc2n1 [Compound I-222]
86 | CCOC(=O)CNC(=O)Nc1cn2nc(-c3cncc(OC)c3)ccc2n1 [Compound I-223]
51 | COc1cccc(-c2ccc3nc(NC(=O)Nc4nccs4)cn3n2)c1 [Compound I-232]
79 | COc1cccc(-c2ccc3nc(NC(=O)NC4CCCCNC4=O)cn3n2)c1 (stereo not drawn) [Compound I-233]
71 | COc1cccc(-c2ccc3nc(NC(=O)NCc4ccco4)cn3n2)c1 [Compound I-234]
78 | COc1cccc(-c2ccc3nc(NC(=O)NCCCN4CCCC4=O)cn3n2)c1 [Compound I-235]
67 | COc1cccc(-c2ccc3nc(NC(=O)NCc4ccccn4)cn3n2)c1 [Compound I-236]
74 | COc1cccc(-c2ccc3nc(NC(=O)NCCNC(C)=O)cn3n2)c1 [Compound I-237]
74 | COc1cccc(-c2ccc3nc(NC(=O)NCc4cccnc4)cn3n2)c1 [Compound I-239]
73 | COc1cccc(-c2ccc3nc(NC(=O)N4CCC[C@H]4CO)cn3n2)c1 [Compound I-240]
67 | COc1cccc(-c2ccc3nc(NC(=O)Nc4ccc5[nH]ccc5c4)cn3n2)c1 [Compound I-241]
78 | COc1cccc(-c2ccc3nc(NC(=O)Nc4ccon4)cn3n2)c1 [Compound I-243]
87 | COCCCNC(=O)Nc1cn2nc(-c3cccc(OC)c3)ccc2n1 [Compound I-244]
76 | COCCNC(=O)Nc1cn2nc(-c3cccc(OC)c3)ccc2n1 [Compound I-245]
59 | COc1cccc(-c2ccc3nc(NC(=O)N4CCC[C@H]4C(=O)OC(C)(C)C)cn3n2)c1 [Compound I-249]

inhibition at 50 µM [%] | SMILES
77 | COc1cccc(-c2ccc3nc(NC(=O)NCc4ccoc4)cn3n2)c1 [Compound I-254]
75 | COc1cccc(-c2ccc3nc(NC(=O)NCc4nccs4)cn3n2)c1 [Compound I-255]
83 | CCOC(=O)CCCNC(=O)Nc1cn2nc(-c3cccc(OC)c3)ccc2n1 [Compound I-257]
76 | COc1cccc(-c2ccc3nc(NC(=O)NCC4COCCO4)cn3n2)c1 (stereo not drawn) [Compound I-258]
68 | CCOC(=O)CCNC(=O)Nc1cn2nc(-c3cccc(OC)c3)ccc2n1 [Compound I-259]
59 | COC[C@H]1CCCN1C(=O)Nc1cn2nc(-c3cccc(OC)c3)ccc2n1 [Compound I-261]
71 | COc1cccc(-c2ccc3nc(NC(=O)NCCNC(=O)OC(C)(C)C)cn3n2)c1 [Compound I-263]
67 | COc1cccc(-c2ccc3nc(NC(=O)NCCN)cn3n2)c1 [Compound I-264]
62 | COc1cccc(-c2ccc3nc(NC(=O)NCCC(=O)N4CCOCC4)cn3n2)c1 [Compound I-268]
64 | COc1cccc(-c2ccc3nc(NC(=O)NN4CCc5ccccc54)cn3n2)c1 [Compound I-269]
53 | COc1cccc(-c2ccc3nc(NC(=O)NC4CCN(S(=O)(=O)C(C)C)CC4)cn3n2)c1 [Compound I-271]
61 | COc1cccc(-c2ccc3nc(NC(=O)NCCC(=O)NC(C)(C)C)cn3n2)c1 [Compound I-272]
85 | COc1cccc(-c2ccc3nc(NC(=O)NCCC(=O)OC(C)(C)C)cn3n2)c1 [Compound I-273]
87 | COc1cccc(-c2ccc3nc(NC(=O)NN(C)C)cn3n2)c1 [Compound I-276]
81 | COc1cccc(-c2ccc3nc(NC(=O)NCCCN)cn3n2)c1 [Compound I-278]
83 | COc1cccc(-c2ccc3nc(NC(=O)NCCC(N)=O)cn3n2)c1 [Compound I-279]

The next lines start with the molecule.

SMILES | inhibition at 50 µM [%]
CNC(=O)Nc1cn2nc(-c3cn[nH]c3)ccc2n1 [Compound I-141] | 87
CNC(=O)Nc1cn2nc(-c3cncnc3)ccc2n1 [Compound I-145] | 70
CNC(=O)Nc1cn2nc(-c3cccc(OC(C)=O)c3)ccc2n1 [Compound I-146] | 64
CNC(=O)Nc1cn2nc(-c3ccncc3)ccc2n1 [Compound I-147] | 77
CNC(=O)Nc1cn2nc(-c3ccc(OC)nc3)ccc2n1 [Compound I-148] | 83
CNC(=O)Nc1cn2nc(/C=C/c3ccc(OC)cc3)ccc2n1 [Compound I-149] | 53
CNC(=O)Nc1cn2nc(-c3cccc(OCc4ccccc4)c3)ccc2n1 [Compound I-150] | 71
CNC(=O)Nc1cn2nc(-c3cccc(OC)n3)ccc2n1 [Compound I-151] | 63
CNC(=O)Nc1cn2nc(-c3cccc(O)c3)ccc2n1 [Compound I-152] | 80
CNC(=O)Nc1cn2nc(-c3cccc(C(F)(F)F)c3)ccc2n1 [Compound I-154] | 54
CNC(=O)Nc1cn2nc(-c3cccc(-c4ccccc4)c3)ccc2n1 [Compound I-155] | 57
CNC(=O)Nc1cn2nc(COc3ccccc3)ccc2n1 [Compound I-157] | 58
CNC(=O)Nc1cn2nc(NC(=O)Nc3cccc(C(=O)O)c3)ccc2n1 [Compound I-159] | 86
CNC(=O)Nc1cn2nc(NC(=O)c3ccc(C(=O)O)cc3)ccc2n1 [Compound I-160] | 77
CNC(=O)Nc1cn2nc(Nc3cccc(N(C)C)c3)ccc2n1 [Compound I-161] | 102
CNC(=O)Nc1cn2nc(Nc3cccc(C(=O)O)c3)ccc2n1 [Compound I-162] | 89
COc1cccc(-c2ccc3nc(NC(=O)CC(C)CC(C)(C)C)cn3n2)c1 (stereo not drawn) [Compound I-164] | 89
COc1cccc(-c2ccc3nc(NC(=O)c4ccccn4)cn3n2)c1 [Compound I-168] | 64
COc1cccc(-c2ccc3nc(NC(=O)c4ccncc4)cn3n2)c1 [Compound I-170] | 60
COC(=O)C[C@H](C)CC(=O)Nc1cn2nc(-c3cccc(OC)c3)ccc2n1 [Compound I-171] | 71
COc1cccc(-c2ccc3nc(NC(=O)CCC(=O)N(C)C)cn3n2)c1 [Compound I-172] | 81
COc1cccc(-c2ccc3nc(NC(=O)Cc4ccccc4OC)cn3n2)c1 [Compound I-174] | 78

SMILES | inhibition at 50 µM [%]
COc1cccc(-c2ccc3nc(NC(=O)CNC(C)=O)cn3n2)c1 [Compound I-175] | 66
COc1cccc(-c2ccc3nc(NC(=O)c4ccc5[nH]nnc5c4)cn3n2)c1 [Compound I-177] | 85
COc1cccc(-c2ccc3nc(NC(=O)c4ccc[nH]4)cn3n2)c1 [Compound I-180] | 96
COc1cccc(-c2ccc3nc(NC(=O)CC(C)(C)C)cn3n2)c1 [Compound I-186] | 78
COc1cccc(-c2ccc3nc(NC(=O)CC4CC4)cn3n2)c1 [Compound I-188] | 65
COC(=O)c1cccc(C(=O)Nc2cn3nc(-c4cccc(OC)c4)ccc3n2)c1 [Compound I-192] | 52
COc1cccc(-c2ccc3nc(NC(=O)C4CCOCC4)cn3n2)c1 [Compound I-194] | 84
COC(=O)[C@H]1CC[C@@H](C(=O)Nc2cn3nc(-c4cccc(OC)c4)ccc3n2)C1 [Compound I-195] | 82
COc1cccc(-c2ccc3nc(NC(=O)c4ccc(OC)c(OC)c4)cn3n2)c1 [Compound I-198] | 57
COc1cccc(-c2ccc3nc(NC(=O)c4cccc(N5CCOCC5)c4)cn3n2)c1 [Compound I-202] | 83
COc1cccc(-c2ccc3nc(NC(=O)c4cccc(N5CCN(C)CC5)c4)cn3n2)c1 [Compound I-203] | 68
COc1cccc(-c2ccc3nc(NC(=O)c4cccc(-n5cncn5)c4)cn3n2)c1 [Compound I-204] | 84
COc1cccc(-c2ccc3nc(NC(=O)[C@H]4CCCCN4C(=O)OC(C)(C)C)cn3n2)c1 [Compound I-207] | 64
COc1cccc(-c2ccc3nc(NC(=O)CCCN4CCCC4=O)cn3n2)c1 [Compound I-209] | 81
COc1cccc(-c2ccc3nc(NC(=O)C4CCN4C(C)(C)C)cn3n2)c1 (stereo not drawn) [Compound I-211] | 61
COc1cccc(-c2ccc3nc(NC(=O)CN(C)C(=O)OC(C)(C)C)cn3n2)c1 [Compound I-212] | 60
COCCC(=O)Nc1cn2nc(-c3cccc(OC)c3)ccc2n1 [Compound I-213] | 73
CNC(=O)Nc1cn2nc(Nc3cccc(C(N)=O)c3)ccc2n1 [Compound I-215] | 70
CNC(=O)Nc1cn2nc(Nc3cccc(C(=O)NC)c3)ccc2n1 [Compound I-216] | 55
CNC(=O)Nc1cn2nc(COc3cccc(C(=O)OC)c3)ccc2n1 [Compound I-217] | 62
CNC(=O)Nc1cn2nc(COc3cccnc3)ccc2n1 [Compound I-218] | 63
